EC50 and GI50 data for two molecules are collected here from patent US20100183600A1, “RAF Inhibitors and Their Uses” (ARQULE, INC., priority 2008, published 2010).

The term EC50 denotes the concentration that produces a half-maximal response. Read a low EC50 as a more potent agent. The GI50 is the concentration at which growth is held to half of that of the control. High values mean less potent growth inhibition, low ones more potent growth inhibition.

One assay relates to p-Erk (A375). The assay is described as follows: Cell-based phosphorylation assay with electroblotting readout. The arrangement: species or system human. The settings on record: Homo sapiens, A-375; A375 cells, 1 hr. The source says: Compounds of the present invention have been screened for their ability to inhibit all isoforms, both wild-type and mutant of RAF kinases (A-RAF, B-RAF and C-RAF) in general, and the mutant B-RAF (V600E) in particular in human cancer cells. A375 is a human melanoma cell line that harbors the most common B-RAF mutation-V600E found in human cancers. The ability of compounds to inhibit RAF kinases in this assay is correlated with the reduction of MEK and ERK phosphorylation, and is therefore a direct indicator of potential in vivo therapeutic activity.
Materials: A375 cells from ATCC were maintained at 37° C., 5% CO2 in DMEM media supplemented with 10% fetal bovine serum, penicillin/streptomycin and fungizone. (Invitrogen)
Methods: Test compounds were dissolved and diluted 1:1000 in DMSO. A375 cells were seeded in six-well tissue culture plates at 5-8×10^5 per well and cultured at 37° C. for 24 h. Cells were incubated with compounds for one hour before being lysed in EPage™ loading buffer (Invitrogen). Lysates were electrophoresed on 8% EPage™ gels and transferred to polyvinylidene difluoride membranes. After incubations with primary and secondary antibodies, the immunostained proteins were detected and quantitated by an Odyssey infrared imager (LI-COR). Analysis was performed by non-linear regression to generate a dose response curve. The calculated IC50 value was the concentration of the test compound that causes a 50% decrease in phospho-MEK and phospho-ERK levels. The primary antibodies used were anti-MEK (Stressgen), anti-ERK (BD Biosciences), anti-phospho-ERK and anti-phospho-MEK (Cell Signaling). The secondary antibodies used were IRDYE800 anti-rabbit, IRDYE 800 anti-mouse (Rockland), AlexaFluor680 anti-mouse and AlexaFluoro680 anti-rabbit (Invitrogen).
A375 cells were treated with 0, 12, 37, 111, 333 and 1000 nM of indicated compounds for 1 hr. The levels of Phospho-ERK and total-ERK were accessed by immunoblotting.

A further assay has as its system A427. The assay is described as follows: Cell growth inhibition assay (MTS). The class given is cell-based. The settings on record: Homo sapiens, A-427; A427, lung Carcinoma. Here is the method:
(§1) Compounds of the present invention have been tested for activity against a variety of cancer cell lines. The ability of compounds to inhibit cell growth in this assay is correlated with the reduction of dehydrogenase enzyme activity found in metabolically active cells.
(§2) Materials: A large variety of cancer cells from ATCC were maintained at 37° C., 5% CO2 in DMEM media supplemented with 10% fetal bovine serum, penicillin/streptomycin and fungizone (Invitrogen). NCM460 (Incell), a normal colon epithelial cell line, and human mammary epithelial cells (Cambrex) were maintained at 37° C., 5% CO2 in DMEM and HEBM media (Cambrex), respectively.
(§3) Methods: Test compounds were dissolved and diluted to 300× in DMSO then diluted 1:40 in DMEM. Cells were seeded into 96-well tissue culture plates at 1-5×10^3 per well and cultured at 37° C. for 24 h. Cells were incubated with test compounds for 72 hours followed by incubation with tetrazolium compound (3-(4,5-dimethylthiazol-2-yl)-5-(3-carboxymethoxyphenyl)-2-(4-sulfophenyl)-2H-tetrazolium, inner salt; MTS) and the electron coupling reagent, phenazine methosulfate (PMS) for 4 hr. […] The measurement of the absorbance of the formazan was assessed using an ENVISION™ (Perkin Elmer) microplate reader at 492 nm. The calculated IC50 value is the concentration of the test compound that causes a 50% decrease in the absorbance.

The subject of another assay is CAKI-1. Kind of assay: Cell growth inhibition assay (MTS). The settings on record: Homo sapiens; CAKI-1, kidney. The class given is cell-based. As for the experimental part: as §1, §2, §3
The test system of a further assay is CAKI-2. Kind of assay: Cell growth inhibition assay (MTS). Type of assay: cell-based. Particulars: Homo sapiens; CAKI-2, kidney. As for the experimental part: as §1, §2, §3
The next assay relates to CFPPAC-1. Kind of assay: Cell growth inhibition assay (MTS). The class given is cell-based. Particulars: Homo sapiens; CFPPAC-1, pancreasductal adenocarcinoma; cystic fibrosis. As for the experimental part: as §1, §2, §3
A further assay relates to COLO-205. Kind of assay: Cell growth inhibition assay (MTS). The settings on record: Homo sapiens; COLO-205, colon. The class given is cell-based. Here is the method: as §1, §2, §3
The test system of another assay is HCT-116. The assay is described as follows: Cell growth inhibition assay (MTS). The class given is cell-based. The settings on record: Homo sapiens; HCT-116, colon. Here is the method:
as §1, §2, §3

The test system of another assay is HCT-15. Kind of assay: Cell growth inhibition assay (MTS). Particulars: Homo sapiens; HCT-15, colon. Type of assay: cell-based. Here is the method: as §1, §2, §3
In a further assay the test system is HEC1A. The assay is described as follows: Cell growth inhibition assay (MTS). Particulars: Homo sapiens, HEC-1-A, endometrial. Type of assay: cell-based. Here is the method: as §1, §2, §3
The subject of the next assay is HPAF-II. Kind of assay: Cell growth inhibition assay (MTS). The class given is cell-based. The settings on record: Homo sapiens, pancreas. Here is the method:
as §1, §2, §3

In another assay the test system is Kato111. Kind of assay: Cell growth inhibition assay (MTS). The class given is cell-based. Particulars: Homo sapiens; Kato111, gastric carcinoma. As for the experimental part:
as §1, §2, §3

A further assay concerns MKN-45. Kind of assay: Cell growth inhibition assay (MTS). The class given is cell-based. Particulars: Homo sapiens; MKN-45, stomach. Here is the method: as §1, §2, §3
A further assay relates to NCI-H1299. Kind of assay: Cell growth inhibition assay (MTS). The class given is cell-based. The settings on record: Homo sapiens; NCI-H1299, non-small cell lung carcinoma. As for the experimental part: as §1, §2, §3
The test system of the next assay is NCI-H526. Kind of assay: Cell growth inhibition assay (MTS). Particulars: Homo sapiens; NCI-H526, lung carcinoma, variant small cell lung cancer. The class given is cell-based. Here is the method:
as §1, §2, §3

The test system of a further assay is NTERA-2 c1. D1. The assay is described as follows: Cell growth inhibition assay (MTS). The class given is cell-based. Particulars: Homo sapiens, NTERA2; NTERA-2 c1. D1, testis pluripotent embryonal carcinoma. Here is the method: as §1, §2, §3
Another assay has as its system PANC-1. Kind of assay: Cell growth inhibition assay (MTS). Type of assay: cell-based. Particulars: Homo sapiens; PANC-1, pancreas epithelioid carcinoma. Here is the method:
as §1, §2, §3

The next assay deals with RKO. Kind of assay: Cell growth inhibition assay (MTS). Type of assay: cell-based. Particulars: Homo sapiens. As for the experimental part: as §1, §2, §3
In the next assay the test system is RT4. Kind of assay: Cell growth inhibition assay (MTS). Type of assay: cell-based. Particulars: RT-4; RT4, human urinary bladder cell carcinoma. Here is the method:
as §1, §2, §3

The subject of the next assay is SK-HEP-1. The assay is described as follows: Cell growth inhibition assay (MTS). Particulars: Homo sapiens, SK-HEP1; SK-HEP-1, liver adenocarcinoma. The class given is cell-based. Here is the method:
as §1, §2, §3

For another assay, the system named is SK-LMS-1. Kind of assay: Cell growth inhibition assay (MTS). The class given is cell-based. The settings on record: Homo sapiens; SK-LMS-1, leiomyosarcoma. Here is the method:
as §1, §2, §3

For another assay, the system named is SK-OV-3. Kind of assay: Cell growth inhibition assay (MTS). The class given is cell-based. The settings on record: Homo sapiens; SK-OV-3, ovary. As for the experimental part:
as §1, §2, §3

In a further assay the test system is SW620. The assay is described as follows: Cell growth inhibition assay (MTS). The settings on record: Homo sapiens, SW-620; SW620, colorectal adenocarcinoma. Type of assay: cell-based. Here is the method:
as §1, §2, §3

The next assay relates to SK-MEL-2. The assay is described as follows: Cell growth inhibition assay (MTS). Type of assay: cell-based. Particulars: Homo sapiens; SK-MEL-2, 72 hours. Here is the method: as §1, §2, §3

`Cn1ccc(S(=O)(=O)N2CCC[C@@H](Nc3nccc(-c4c(-c5cccc(OCOP(=O)(O)O)c5)nc5occn45)n3)C2)n1` [Compound 19, (R)-(3-(5-(2-(1-(1-methyl-1H-pyrazol-3-ylsulfonyl)piperidin-3-ylamino)pyrimidin-4-yl)imidazo[2,1-b]oxazol-6-yl)phenoxy)methyl dihydrogen phosphate]: the EC50 in the assay with p-Erk (A375) stood at 0.095 µM. The GI50 in the assay with A427 was 3.23 µM; in the assay with CAKI-1, 30.3 µM; in the assay on CAKI-2, 26.2 µM; in the assay on CFPPAC-1, 11.9 µM; in the assay on COLO-205 it was 0.25 µM; in the assay on HCT-116, 6.61 µM. For the same molecule, the GI50 came to 23.2 µM in the assay on HCT-15; 2.72 µM in the assay on HEC1A; 5.78 µM with HPAF-II; 6.11 µM in the assay with Kato111; 21.4 µM in the assay with MKN-45; 6.38 µM with NCI-H1299. In addition, the GI50 in the assay with NCI-H526 is 58.9 µM; in the assay on NTERA-2 c1. D1 it was 5.32 µM; in the assay with PANC-1, 29.7 µM; in the assay with RKO (colon carcinoma) it was 0.57 µM; with RT4 it was 10 µM; in the assay on SK-HEP-1 it was 7.22 µM. For the same molecule, the GI50 stood at 15.2 µM in the assay on SK-LMS-1, 13.7 µM in the assay with SK-OV-3 and 22.8 µM with SW620.
For `Cn1ccc(S(=O)(=O)N2CCC[C@@H](Nc3nccc(-c4c(-c5cccc(O)c5)nc5occn45)n3)C2)n1` [Compound 17, (R)-3-(5-(2-(1-(1-methyl-1H-pyrazol-3-ylsulfonyl)piperidin-3-ylamino)pyrimidin-4-yl)imidazo[2,1-b]oxazol-6-yl)phenol], in the assay with p-Erk (A375), the EC50 was 0.093 µM. Also, the GI50 in the assay on RKO (72 hours) is 0.095 µM; in the assay with SK-MEL-2, 0.154 µM.
